Target: unphosphorylated-BTK kinase domain (UP-BTK), GST-tagged human BTK (389-659aa) (Homo sapiens (Human), UniProt Q06187)
Assay: BTK kinase Lanthascreen binding assay
Details: Lanthascreen tracer competition, 60 minutes incubation, pIC50 = negative log of the IC50 in molar; for IC50: read-out: BTK_I_binding pIC50 (converted)
Method in brief: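 Compound binding to the unphosphorylated kinase domain was monitored by displacement of a fluorescently labelled tracer in a Lanthascreen format. Potency is given as pIC50, the negative log of the molar IC50.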

Chain of unphosphorylated-BTK kinase domain (UP-BTK), GST-tagged human BTK (389-659aa) (Q06187 389-659): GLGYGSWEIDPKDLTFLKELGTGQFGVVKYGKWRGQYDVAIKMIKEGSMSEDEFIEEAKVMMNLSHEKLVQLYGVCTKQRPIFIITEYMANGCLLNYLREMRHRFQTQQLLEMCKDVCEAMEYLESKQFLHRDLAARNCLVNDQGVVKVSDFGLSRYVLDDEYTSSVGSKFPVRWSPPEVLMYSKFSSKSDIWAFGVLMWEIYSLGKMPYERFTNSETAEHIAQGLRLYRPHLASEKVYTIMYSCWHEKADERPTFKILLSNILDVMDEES

Row | Compound | BTK_I_binding pIC50 | IC50 [nM]
1 | Cc1cc(Oc2ccccc2)ccc1N1C(=O)Nc2c(NC(=O)C3CCN(C#N)CC3)sc3nccc1c23 [Example 822, 1-Cyano-N-(5-(2-methyl-4-phenoxyphenyl)-4-oxo-4,5-dihydro-3H-1-thia-3,5,8-triazaacenaphthylen-2-yl)piperidine-4-carboxamide] | 5.8 | –
2 | Cc1cc(Oc2ccccc2)ccc1N1C(=O)Nc2c(NC(=O)C3CCCN(C)C3)sc3nccc1c23 (stereo not shown) [Example 823, 1-Methyl-N-(5-(2-methyl-4-phenoxyphenyl)-4-oxo-4,5-dihydro-3H-1-thia-3,5,8-triazaacenaphthylen-2-yl)piperidine-3-carboxamide] | – | 3160
3 | Cc1cc(C(=O)Nc2cc(C(F)(F)F)ccn2)ccc1N1C(=O)Nc2c(C(=O)N[C@@H]3CCCN(C(=O)/C(C#N)=C/C4CC4)C3)sc3nccc1c23 [Example 835, (R,E)-N-(1-(2-Cyano-3-cyclopropylacryloyl)piperidin-3-yl)-5-(2-methyl-4-((4-(trifluoromethyl)pyridin-2-yl)carbamoyl)phenyl)-4-oxo-4,5-dihydro-3H-1-thia-3,5,8-triazaacenaphthylene-2-carboxamide] | 8.0 | –
4 | N#C/C(=C\C1CC1)C(=O)N1CCC[C@@H](NC(=O)c2sc3nccc4c3c2NC(=O)N4c2ccc(C(=O)Nc3cc(C(F)(F)F)ccn3)cc2F)C1 [Example 836, (R,E)-N-(1-(2-Cyano-3-cyclopropylacryloyl)piperidin-3-yl)-5-(2-fluoro-4-((4-(trifluoromethyl)pyridin-2-yl)carbamoyl)phenyl)-4-oxo-4,5-dihydro-3H-1-thia-3,5,8-triazaacenaphthylene-2-carboxamide] | 7.9 | –
5 | N#C/C(=C\C1CC1)C(=O)N1CCC[C@@H](NC(=O)c2sc3nccc4c3c2NC(=O)N4c2cccc(Oc3ccccc3)c2)C1 [Example 840, (R,E)-N-(1-(2-Cyano-3-cyclopropylacryloyl)piperidin-3-yl)-4-oxo-5-(3-phenoxyphenyl)-4,5-dihydro-3H-1-thia-3,5,8-triazaacenaphthylene-2-carboxamide] | 7.8 | –
6 | COCCC(=O)N1CCC[C@@H](NC(=O)c2sc3nccc4c3c2NC(=O)N4c2ccc(Oc3ccccc3)cc2C)C1 [Example 841, (R)—N-(1-(3-Methoxypropanoyl)piperidin-3-yl)-5-(2-methyl-4-phenoxyphenyl)-4-oxo-4,5-dihydro-3H-1-thia-3,5,8-triazaacenaphthylene-2-carboxamide] | 7.7 | –
7 | C=CC(=O)N1CCC[C@@H](NC(=O)c2sc3nccc4c3c2NC(=O)N4c2cc(-c3cccc(F)c3F)ccc2C)C1 [Example 842, (R)—N-(1-Acryloylpiperidin-3-yl)-5-(2′,3′-difluoro-4-methyl-[1,1′-biphenyl]-3-yl)-4-oxo-4,5-dihydro-3H-1-thia-3,5,8-triazaacenaphthylene-2-carboxamide] | 7.7 | –
8 | Cc1cc(Oc2ccccc2)ccc1N1C(=O)Nc2c(C(=O)N[C@@H]3CCN(C(=O)/C(C#N)=C/C4CC4)C3)sc3nccc1c23 [Example 844, (R,E)-N-(1-(2-Cyano-3-cyclopropylacryloyl)pyrrolidin-3-yl)-5-(2-methyl-4-phenoxyphenyl)-4-oxo-4,5-dihydro-3H-1-thia-3,5,8-triazaacenaphthylene-2-carboxamide] | 7.6 | –
9 | C=CC(=O)N1CCC[C@@H](NC(=O)c2sc3nccc4c3c2NC(=O)N4c2ccc(Oc3ccccn3)cc2)C1 [Example 846, (R)—N-(1-Acryloylpiperidin-3-yl)-4-oxo-5-(4-(pyridin-2-yloxy)phenyl)-4,5-dihydro-3H-1-thia-3,5,8-triazaacenaphthylene-2-carboxamide] | 7.6 | –
10 | C=CC(=O)N1CC[C@@H](NC(=O)c2sc3nccc4c3c2NC(=O)N4c2ccc(Oc3cccc(COc4ccccc4C#N)c3)cc2C)C1 [Example 847, (R)—N-(1-Acryloylpyrrolidin-3-yl)-5-(4-(3-((2-cyanophenoxy)methyl)phenoxy)-2-methylphenyl)-4-oxo-4,5-dihydro-3H-1-thia-3,5,8-triazaacenaphthylene-2-carboxamide] | 7.6 | –
11 | CN[C@H](C)C(=O)N1CCC[C@@H](NC(=O)c2sc3nccc4c3c2NC(=O)N4c2ccc(Oc3ccccc3)cc2C)C1 [Example 848, 5-(2-Methyl-4-phenoxyphenyl)-N—((R)-1-((R)-2-(methylamino)propanol)piperidin-3-yl)-4-oxo-4,5-dihydro-3H-1-thia-3,5,8-triazaacenaphthylene-2-carboxamide] | 7.6 | –
12 | Cc1cc(Oc2ccccc2)ccc1N1C(=O)Nc2c(C(=O)N[C@@H]3CCCN(C(=O)/C(C#N)=C/C4CC4)C3)sc3nccc1c23 [Example 850, (R,E)-N-(1-(2-Cano-3-cyclopropylacryloyl)piperidin-3-yl)-5-(2-methyl-4-phenoxyphenyl)-4-oxo-4,5-dihydro-3H-1-thia-3,5,8-triazaacenaphthylene-2-carboxamide] | 7.6 | –
13 | N#C/C(=C\C1CC1)C(=O)N1CCCC(NC(=O)c2sc3nccc4c3c2NC(=O)N4c2cccc(Oc3ccccc3)c2)C1 (stereo not shown) [Example 851, (E)-N-(1-(2-Cyano-3-cyclopropylacryloyl)piperidin-3-yl)-4-oxo-5-(3-phenoxyphenyl)-4,5-dihydro-3H-1-thia-3,5,8-triazaacenaphthylene-2-carboxamide] | 7.5 | –
14 | CN[C@@H](C)C(=O)N1CCC[C@@H](NC(=O)c2sc3nccc4c3c2NC(=O)N4c2ccc(Oc3ccccc3)cc2C)C1 [Example 853, 5-(2-Methyl-4-phenoxyphenyl)-N—((R)-1-((S)-2-(methylamino)propanol)piperidin-3-yl)-4-oxo-4,5-dihydro-3H-1-thia-3,5,8-triazaacenaphthylene-2-carboxamide] | 7.5 | –
15 | Cc1ccccc1N1C(=O)Nc2c(C(=O)N[C@@H]3CCCN(C(=O)/C(C#N)=C/C4CC4)C3)sc3nccc1c23 [Example 854, (R,E)-N-(1-(2-Cyano-3-cyclopropylacryloyl)piperidin-3-yl)-4-oxo-5-(o-tolyl)-4,5-dihydro-3H-1-thia-3,5,8-triazaacenaphthylene-2-carboxamide] | 7.5 | –
16 | COc1ccccc1Oc1ccc(N2C(=O)Nc3c(C(=O)NC4CCCN(C(=O)/C(C#N)=C/C5CC5)C4)sc4nccc2c34)c(C)c1 (stereo not shown) [Example 856, (E)-N-(1-(2-Cyano-3-cyclopropylacryloyl)piperidin-3-yl)-5-(4-(2-methoxyphenoxy)-2-methylphenyl)-4-oxo-4,5-dihydro-3H-1-thia-3,5,8-triazaacenaphthylene-2-carboxamide] | 7.5 | –
17 | Cc1cc(Oc2cccc(COc3ccccc3C#N)c2)ccc1N1C(=O)Nc2c(C(=O)NC3CCNCC3)sc3nccc1c23 [Example 857, 5-(4-(3-((2-Cyanophenoxy)methyl)phenoxy)-2-methylphenyl)-4-oxo-N-(piperidin-4-yl)-4,5-dihydro-3H-1-thia-3,5,8-triazaacenaphthylene-2-carboxamide] | 7.5 | –

Continued, values first:

Row | BTK_I_binding pIC50 | IC50 [nM] | Compound
18 | 7.9 | – | Cc1cc(Oc2ccccc2)ccc1N1C(=O)Nc2c(C(=O)N[C@@H]3CCN(C#N)C3)sc3nccc1c23 [Example 837, (R)—N-(1-Cyanopyrrolidin-3-yl)-5-(2-methyl-4-phenoxyphenyl)-4-oxo-4,5-dihydro-3H-1-thia-3,5,8-triazaacenaphthylene-2-carboxamide]
19 | 7.9 | – | Cc1cc(Oc2ccccc2)ccc1N1C(=O)Nc2c(C(=O)N[C@@H]3CCN(C(=O)CC#N)C3)sc3nccc1c23 [Example 838, (R)—N-(1-(2-Cyanoacetyl)pyrrolidin-3-yl)-5-(2-methyl-4-phenoxyphenyl)-4-oxo-4,5-dihydro-3H-1-thia-3,5,8-triazaacenaphthylene-2-carboxamide]
20 | – | 12.6 | C=CC(=O)N1CCC[C@@H](NC(=O)c2sc3nccc4c3c2NC(=O)N4c2ccc(Oc3ccccc3)cc2C)C1 [Example 839, (R)—N-(1-Acryloylpiperidin-3-yl)-5-(2-methyl-4-phenoxyphenyl)-4-oxo-4,5-dihydro-3H-1-thia-3,5,8-triazaacenaphthylene-2-carboxamide]
21 | 7.6 | – | CCC(=O)N1CC[C@@H](NC(=O)c2sc3nccc4c3c2NC(=O)N4c2ccc(Oc3ccccc3)cc2C)C1 [Example 843, (R)-5-(2-Methyl-4-phenoxyphenyl)-4-oxo-N-(1-propionylpyrrolidin-3-yl)-4,5-dihydro-3H-1-thia-3,5,8-triazaacenaphthylene-2-carboxamide]
22 | 7.6 | – | Cc1cc(Oc2ccccc2)ccc1N1C(=O)Nc2c(C(=O)N[C@@H]3CCCN(C(=O)[C@H]4CCN4)C3)sc3nccc1c23 [Example 849, N—((R)-1-((R)-Azetidine-2-carbonyl)piperidin-3-yl)-5-(2-methyl-4-phenoxyphenyl)-4-oxo-4,5-dihydro-3H-1-thia-3,5,8-triazaacenaphthylene-2-carboxamide]
23 | – | 31.6 | Cc1cc(Oc2ccccc2)ccc1N1C(=O)Nc2c(C(=O)N[C@@H]3CCCN(C#N)C3)sc3nccc1c23 [Example 852, (R)—N-(1-Cyanopiperidin-3-yl)-5-(2-methyl-4-phenoxyphenyl)-4-oxo-4,5-dihydro-3H-1-thia-3,5,8-triazaacenaphthylene-2-carboxamide]
24 | 7.5 | – | Cc1cc(Oc2cccc(COc3ccccc3C#N)c2)ccc1N1C(=O)Nc2c(C(=O)NC3CCN(C)CC3)sc3nccc1c23 [Example 855, 5-(4-(3-((2-Cyanophenoxy)methyl)phenoxy)-2-methylphenyl)-N-(1-methylpiperidin-4-yl)-4-oxo-4,5-dihydro-3H-1-thia-3,5,8-triazaacenaphthylene-2-carboxamide]
25 | 7.5 | – | Cc1cc(Oc2ccccc2)ccc1N1C(=O)Nc2c(C(=O)NC3CCN(C)CC3)sc3nccc1c23 [Example 858, 5-(2-Methyl-4-phenoxyphenyl)-N-(1-methylpiperidin-4-yl)-4-oxo-4,5-dihydro-3H-1-thia-3,5,8-triazaacenaphthylene-2-carboxamide]

From US10800792B2, “Inhibitors of Bruton's tyrosine kinase and method of their use” (JANSSEN PHARMACEUTICA NV, priority 2015, dated 2020)
